Measurements taken from patent US7799353B2, “Pharmaceutical mixture for hepatitis treatment and its preparation method” (Industrial Technology Research Institute, priority 2003, dated 2010).

What was measured:
[1] = tested on: d-galactosamine-induced liver damage; assay: Histopathological sections of liver of d-galactosamine-induced acute hepatitis animals; format: in vivo, rats; conditions: 300 mg/kg
Method: (§1) Rats are randomly divided, with six rats in each group. The animals fasted for 24 hr before the experiment. In the study, normal and d-galactosamine (Gal) groups are orally given with distilled water, testing groups are orally given with 1 g/kg of the test articles (JM, BMEC-1 or BMEC-101 from different processes) dissolving in distilled water, and rats in positive control group are orally administrated with silymarin (200 mg/kg) and guanine (300 mg/kg). One hour later, each group is i.p. with d-galactosamine (400 mg/kg), and the normal group is i.p. with saline. Four and eight hours after d-galactosamine injection, the same dosages are administrated again. Twenty-four hours after d-galactosamine injection, the animals are anesthetized with ether, and the blood is collected from the carotid artery. The serum is separated and stands still at room temperature for 1 hr, and centrifuged (Backman centrifuge, GS-6R, 3000 rpm) for 10 mins. The activities of rat serum GOT and GPT are measured.
After blood is collected, the liver of the acute hepatitis animal induced by d-galactosamine is separated, and liver tissue around 0.5 cm^3 in each folium is taken out. Those tissues are fixed in 10% neutral formalin for 1 to 2 weeks, then dehydrated and paraffin embedded by the dehydration and wax-exudation device, and cut into 4 to 5 μm liver slices by rotary microtome. The slices are stained with Haematoxylin and Eosin, and the pathological patterns are observed under an optical microscope.

[2] = tested on: d-galactosamine-induced acute hepatitis; assay: d-galactosamine-induced acute hepatitis in rats, serum GOT/GPT (Embodiment 5, guanine positive control); format: in vivo; conditions: for reduction of sGOT value / reduction of sGPT value: vs d-galactosamine group
Method: Male rats are randomly divided, with five rats in the individual group and 200±20 g of each. In the study, normal and d-galactosamine (Gal) groups are orally given with distilled water, testing groups are orally given with test articles (JM or BMEC-1 from different processes) dissolving in distilled water, positive control group is orally given with guanine (300 mg/kg), and each administration dosage is 10 ml/kg.
Half-hour later, each group is i.p. with d-galactosamine (500 mg/kg) except the normal group. Four and eight hours after d-galactosamine injection, the same dosages are administrated again. Twenty-four hours after d-galactosamine injection, the animals are sacrificed for collecting the blood, and then the serum GOT (Glutamyl Oxaloacetic Transaminase) and GPT (Glutamyl Pyrubic Transaminase) activities are measured by using HITACHI auto-analyzing system (model 7050) with UV method.

[3] = tested on: d-galactosamine-induced acute hepatitis; assay: d-galactosamine-induced acute hepatitis in rats, serum GOT/GPT (Embodiment 6, silymarin and guanine positive controls); format: in vivo
Method: as §1

[4] = Table 2, oral 300 × 3 mg/kg, Gal 500 mg/kg i.p., serum 24 h after Gal, mean ± SEM, n = 5
[5] = Table 2 experiment, positive control, oral 300 × 3 mg/kg
[6] = Table 3, oral 300 × 3 mg/kg, Gal 500 mg/kg i.p., mean ± SEM, n = 5
[7] = Table 3 experiment, oral 300×3 mg/kg
[8] = Table 4 Batch 1, oral 300 × 3 mg/kg, Gal 500 mg/kg i.p., mean ± SEM, n = 5
[9] = Table 4 Batch 1, oral 300×3 mg/kg
[10] = Table 4 Batch 2, oral 300 × 3 mg/kg, Gal 500 mg/kg i.p., mean ± SEM, n = 5
[11] = Table 4 Batch 2, oral 300×3 mg/kg
[12] = Table 5, oral 300 × 3 mg/kg, Gal 400 mg/kg i.p., mean ± SEM, n = 6
[13] = Table 5 experiment, oral 300×3 mg/kg, vs d-galactosamine group

Q: For `Nc1nc2nc[nH]c2c(=O)[nH]1` [guanine], which Fibrosis ([1]; liver fibrosis grade) is on record?
A: 1

Q: What about the Balloon degeneration ([1]; liver histopathology grade) of the same molecule?
A: 0

Q: What about the Bile duct proliferation ([1]; liver histopathology grade) of the same molecule?
A: 1

Q: What about the Fatty change ([1]; liver histopathology grade) of the same molecule?
A: 1

Q: What about the Inflammation ([1]; liver histopathology grade) of the same molecule?
A: 1

Q: What about the Mitosis ([1]; liver histopathology grade) of the same molecule?
A: 0

Q: And the Necrosis ([1]; liver histopathology grade)?
A: 0

Q: And the sGOT [2, 4]?
A: 980.0 ± 92.5 U/L

Q: What about the sGPT [2, 4] of the same molecule?
A: 589.6 ± 54.6 U/L

Q: And the “reduction of sGOT value” [2, 5]?
A: 24%

Q: And the “reduction of sGPT value” [2, 5]?
A: 32%

Q: And the sGOT [2, 6]?
A: 954.8 ± 122.1 U/L

Q: And the sGPT [2, 6]?
A: 514.4 ± 78.2 U/L

Q: What about the “reduction of sGOT value” [2, 7] of the same molecule?
A: 45%

Q: What about the “reduction of sGPT value” [2, 7] of the same molecule?
A: 59%

Q: What about the sGOT [2, 8] of the same molecule?
A: 1055.6 ± 150.1 U/L

Q: What about the sGPT [2, 8] of the same molecule?
A: 699.2 ± 103.6 U/L

Q: What about the “reduction of sGOT value” [2, 9] of the same molecule?
A: 49%

Q: And the “reduction of sGPT value” [2, 9]?
A: 41%

Q: What about the GOT [2, 10] of the same molecule?
A: 1080.0 ± 181.7 U/L

Q: What about the GPT [2, 10] of the same molecule?
A: 584.0 ± 114.9 U/L

Q: And the “reduction of sGOT value” [2, 11]?
A: 42%

Q: What about the “reduction of sGPT value” [2, 11] of the same molecule?
A: 49%

Q: What about the sGOT [3, 12] of the same molecule?
A: 160.7 ± 33.5 U/L

Q: What about the sGPT [3, 12] of the same molecule?
A: 55.1 ± 19.2 U/L

Q: What about the “reduction of sGOT value” [3, 13] of the same molecule?
A: 70%

Q: What about the “reduction of sGPT value” [3, 13] of the same molecule?
A: 79%
